{"source": "ChEMBL document CHEMBL4387714", "about": "“Four N-(E)-cinnamoyl (cinnamamide) derivatives of aminoalkanols with promising anticonvulsant and analgesic activity” (Bioorg Med Chem Lett, 2019)", "key": {"Rattus norvegicus [1]": {"test_system": "Rattus norvegicus", "test": "Antiallodynic activity in albino Sprague-Dawley rat model of sciatic nerve ligation-induced neuropathic pain assessed as time required to show maximum increase in paw withdrawal threshold at 50 mg/kg, po Von Frey test", "assay_type": "functional"}, "Brain [2]": {"test_system": "Brain", "test": "(§1) In vitro anticonvulsant activity in kainic acid-induced albino Sprague Dawley rat brain assessed as blockade of ACSF-stimulated spontaneous electrographic seizure-like activity in medial entorhinal cortex hippocampal brain slices by measuring burst duration at 100 uM measured after 20 mins relative to control", "assay_type": "functional"}, "Mus musculus [3]": {"test_system": "Mus musculus", "test": "Anticonvulsant activity in ip dosed 60-Hz corneal stimulation-induced full kindling albino CF1 mouse model of epilepsy assessed as reduction in seizure score treated 0.25 hrs prior to 60-Hz corneal stimulation", "assay_type": "functional"}, "[4]": {"test": "Toxicity in albino CF1 mouse assessed as body weight at 43 mg/kg, ip measured at 0.25 hrs (reference value: 26.4 +/- 0.4 g)", "assay_type": "organism-based", "conditions": "in vivo"}, "Rattus norvegicus [5]": {"test_system": "Rattus norvegicus", "test": "Antiallodynic activity in albino Sprague-Dawley rat model of sciatic nerve ligation-induced neuropathic pain assessed as increase in paw withdrawal threshold at 50 mg/kg, po measured after 2 hrs by Von Frey test relative to control", "assay_type": "functional"}, "Mus musculus [6]": {"test_system": "Mus musculus", "test": "Anticonvulsant activity in albino CF1 mouse assessed as metrazol dose causing first clonus at 43 mg/kg, ip administered 0.25 hrs prior to MTZ challenge (reference value: 31.1 +/- 1.4 mg/kg)", "assay_type": "functional"}, "[7]": {"test": "Toxicity in albino CF1 mouse assessed as body weight at 150 mg/kg, ip measured at 0.25 hrs (reference value: 26.4 +/- 0.4 g)", "assay_type": "organism-based", "conditions": "in vivo"}, "Mus musculus [8]": {"test_system": "Mus musculus", "test": "Anticonvulsant activity in albino CF1 mouse model of metrazol-induced seizures assessed as metrazol dose causing first twitch at 43 mg/kg, ip administered 0.25 hrs prior to MTZ challenge (reference value: 27.9 +/- 1.2 mg/kg)", "assay_type": "functional"}, "Mus musculus [9]": {"test_system": "Mus musculus", "test": "Anticonvulsant activity in albino CF1 mouse assessed as metrazol dose causing first clonus at 150 mg/kg, ip administered 0.25 hrs prior to MTZ challenge (reference value: 31.1 +/- 1.4 mg/kg)", "assay_type": "functional"}, "Mus musculus [10]": {"test_system": "Mus musculus", "test": "Anticonvulsant activity in albino CF1 mouse assessed as time to clonus at 150 mg/kg, ip administered 0.25 hrs prior to MTZ challenge (reference value: 29 +/- 1.5 s)", "assay_type": "functional"}, "Mus musculus [11]": {"test_system": "Mus musculus", "test": "Anticonvulsant activity in 60-Hz corneal stimulation-induced full kindling albino CF1 mouse model of epilepsy assessed as reduction in seizure score at 20 mg/kg, ip administered 0.25 hrs prior to 60-Hz corneal stimulation", "assay_type": "functional, organism-based"}, "Mus musculus [12]": {"test_system": "Mus musculus", "test": "Anticonvulsant activity in albino CF1 mouse assessed as time to clonus at 43 mg/kg, ip administered 0.25 hrs prior to MTZ challenge (reference value: 29 +/- 1.5 s)", "assay_type": "functional"}, "Mus musculus [13]": {"test_system": "Mus musculus", "test": "Analgesic activity in formalin-induced albino CF1 mouse model of hyperalgesia assessed as time spent in paw licking during inflammatory phase at 43 mg/kg, ip administered 0.25 hrs prior to formalin challenge measured first 2 mins of five minutes test for 10 to 40 mins by formalin test relative to control", "assay_type": "functional"}, "Mus musculus [14]": {"test_system": "Mus musculus", "test": "Anticonvulsant activity in albino CF1 mouse model of metrazol-induced seizures assessed as metrazol dose causing first twitch at 150 mg/kg, ip administered 0.25 hrs prior to MTZ challenge (reference value: 27.9 +/- 1.2 mg/kg)", "assay_type": "functional"}, "Mus musculus [15]": {"test_system": "Mus musculus", "test": "Anticonvulsant activity in albino CF1 mouse model of metrazol-induced seizures assessed as time to twitch at 43 mg/kg, ip administered 0.25 hrs prior to MTZ challenge (reference value: 26.1 +/- 1.2 s)", "assay_type": "functional"}, "Mus musculus [16]": {"test_system": "Mus musculus", "test": "Neuroprotective activity against controlled cortical impact-induced C57Bl/6 acute mouse model of traumatic brain injury assessed as lesion volume at 43 mg/kg, ip administered twice daily for 3 days starting from 0.5 hrs post controlled cortical impact challenge measured post-last dose by naurotrace 435/455 staining-based fluorescent microscopy (reference value: 11.9 +/- 0.7 mm3)", "assay_type": "functional"}, "Rattus norvegicus [17]": {"test_system": "Rattus norvegicus", "test": "Antiallodynic activity in albino Sprague-Dawley rat model of sciatic nerve ligation-induced neuropathic pain assessed as increase in paw withdrawal threshold at 50 mg/kg, po measured after 6 hrs by Von Frey test relative to control", "assay_type": "functional"}, "Mus musculus [18]": {"test_system": "Mus musculus", "test": "Anticonvulsant activity in 60-Hz corneal stimulation-induced full kindling albino CF1 mouse model of epilepsy assessed as reduction in seizure score at 60 mg/kg, ip administered 0.25 hrs prior to 60-Hz corneal stimulation", "assay_type": "functional, organism-based"}, "Mus musculus [19]": {"test_system": "Mus musculus", "test": "Anticonvulsant activity in 60-Hz corneal stimulation-induced full kindling albino CF1 mouse model of epilepsy assessed as reduction in seizure score at 86 mg/kg, ip administered 0.25 hrs prior to 60-Hz corneal stimulation", "assay_type": "functional, organism-based"}, "Rattus norvegicus [20]": {"test_system": "Rattus norvegicus", "test": "Antiallodynic activity in albino Sprague-Dawley rat model of sciatic nerve ligation-induced neuropathic pain assessed as increase in paw withdrawal threshold at 50 mg/kg, po measured after 4 hrs by Von Frey test relative to control", "assay_type": "functional"}, "Rattus norvegicus [21]": {"test_system": "Rattus norvegicus", "test": "Antiallodynic activity in albino Sprague-Dawley rat model of sciatic nerve ligation-induced neuropathic pain assessed as increase in paw withdrawal threshold at 50 mg/kg, po measured after 1 hr by Von Frey test relative to control", "assay_type": "functional"}, "Mus musculus [22]": {"test_system": "Mus musculus", "test": "Anticonvulsant activity in albino CF1 mouse model of metrazol-induced seizures assessed as time to twitch at 150 mg/kg, ip administered 0.25 hrs prior to MTZ challenge (reference value: 26.1 +/- 1.2 s)", "assay_type": "functional"}, "Mus musculus [23]": {"test_system": "Mus musculus", "test": "Analgesic activity in formalin-induced albino CF1 mouse model of hyperalgesia assessed as time spent in paw licking during acute phase at 43 mg/kg, ip administered 0.25 hrs prior to formalin challenge measured first 2 mins of five minutes test for 10 mins by formalin test relative to control", "assay_type": "functional"}, "Brain [24]": {"test_system": "Brain", "test": "as §1, with “rate” for “duration”", "assay_type": "functional"}, "Mus musculus [25]": {"test_system": "Mus musculus", "test": "Analgesic activity in formalin-induced albino CF1 mouse model of hyperalgesia assessed as time spent in paw licking during acute phase at 186 mg/kg, ip administered 0.25 hrs prior to formalin challenge measured first 2 mins of five minutes test for 10 mins by formalin test relative to control", "assay_type": "functional"}, "Mus musculus [26]": {"test_system": "Mus musculus", "test": "Analgesic activity in formalin-induced albino CF1 mouse model of hyperalgesia assessed as time spent in paw licking during inflammatory phase at 186 mg/kg, ip administered 0.25 hrs prior to formalin challenge measured first 2 mins of five minutes test for 10 mins by formalin test relative to control", "assay_type": "functional"}}, "note": "The source made the active and inactive calls."}
{"smiles": "Cc1ccccc1/C=C/C(=O)N[C@@H](C)CO", "values": [{"measurement": "Time", "setting": "Rattus norvegicus [1]", "value": 2, "unit": "h"}, {"measurement": "Activity", "setting": "Brain [2]", "value": 82, "unit": "%"}, {"measurement": "ED50", "setting": "Mus musculus [3]", "value": 36.8, "unit": "mg/kg"}, {"measurement": "Activity", "setting": "[4]", "value": 25.6, "unit": "g"}, {"measurement": "Activity", "setting": "Rattus norvegicus [5]", "value": 254, "unit": "%"}, {"measurement": "Activity", "setting": "Mus musculus [6]", "value": 74.6, "unit": "mg/kg"}, {"measurement": "Activity", "setting": "[7]", "value": 26.5, "unit": "g"}, {"measurement": "Activity", "setting": "Mus musculus [8]", "value": 53.4, "unit": "mg/kg"}, {"measurement": "Activity", "setting": "Mus musculus [9]", "value": 96.3, "unit": "mg/kg"}, {"measurement": "Time", "setting": "Mus musculus [10]", "value": 90, "unit": "s"}, {"measurement": "Activity", "setting": "Mus musculus [11]", "value": "inactive"}, {"measurement": "Time", "setting": "Mus musculus [12]", "value": 67.2, "unit": "s"}, {"measurement": "Activity", "setting": "Mus musculus [13]", "value": 84.29, "unit": "%"}, {"measurement": "Activity", "setting": "Mus musculus [14]", "value": 93.5, "unit": "mg/kg"}, {"measurement": "Time", "setting": "Mus musculus [15]", "value": 48.2, "unit": "s"}, {"measurement": "Activity", "setting": "Mus musculus [16]", "value": 11.09, "unit": "mm3"}, {"measurement": "Activity", "setting": "Rattus norvegicus [17]", "value": 237, "unit": "%"}, {"measurement": "Activity", "setting": "Mus musculus [18]", "value": "Active"}, {"measurement": "Activity", "setting": "Mus musculus [19]", "value": "Active"}, {"measurement": "Activity", "setting": "Rattus norvegicus [20]", "value": 249, "unit": "%"}, {"measurement": "Activity", "setting": "Rattus norvegicus [21]", "value": 233, "unit": "%"}, {"measurement": "Time", "setting": "Mus musculus [22]", "value": 87.3, "unit": "s"}, {"measurement": "Activity", "setting": "Mus musculus [23]", "value": 34.23, "unit": "%"}, {"measurement": "Activity", "setting": "Brain [24]", "value": 106, "unit": "%"}]}
{"smiles": "O=C(/C=C/c1ccc(Cl)cc1)N[C@H]1CC[C@H](O)CC1", "values": [{"measurement": "Activity", "setting": "Mus musculus [25]", "value": 21.89, "unit": "%"}, {"measurement": "Activity", "setting": "Mus musculus [26]", "value": 0, "unit": "%"}]}
